What was measured:
[1] = system: mutant-type iPSC-derived chondrocytes; assay: 2D micromass culture with inhibitor added, cartilaginous hyperplasia (pellet size, GAG); assay type: cell-based, human; conditions: 10 μM or 1 μg/mL
Description: (§1) Chondroprogenitor cells (1.5×10^5 cells) obtained via the above method were suspended in a cartilage induction medium containing 40 ng/ml PDGF-BB and 1% FCS and the suspension was spotted in the form of […] drops on a fibronectin-coated 24-well plate (BD), followed by culture. In this case, the medium was replaced every three days. Six days later, 10 ng/ml TGFβ3 was further added for culture. Ten days after the start of 2D micromass culture, PDGF-BB was substituted with 50 ng/ml BMP4 (WAKO). 2D micromass culture was performed at 37° C. in 5% CO2 for 14 days.
Subsequently, quantitative analysis of the amount of DNA and the glycosaminoglycan production amount after chondrocyte differentiation was conducted. The amount of DNA was determined using a Pico Green dsDNA Quantitation kit (Invitrogen) in the manner described in Nasu A, et al., PloS one. 8(1): e53771 (2013). The extracellular matrix production amount was determined using Blyscan glycosaminoglycan Assay (Biocolor) in accordance with the manufacturer's protocol. As a result, no difference in the amount of DNA in chondrocytes was found between wild-type iPSC-derived cartilage tissue and mutant-type iPSC-derived cartilage tissue in both cases of 2D micromass culture and 3D pellet culture (FIGS. 3B and 3C). […]

SOX9 [2] = assay: 2D micromass culture with inhibitor added, SOX9 expression; assay type: cell-based, human; conditions: 10 μM or 1 μg/mL
Description: as §1
(§2) mRNA was isolated from each cell using an RNeasy Mini Kit (Qiagen). cDNA was synthesized via reverse transcription using 1 μg of the obtained total RNA as a template and a Superscript III reverse transcriptase (Invitrogen). A standard curve for quantitative real-time PCR was created to conduct analysis. Real-time PCR analysis was conducted using a Power SYBR Green qPCR mastermix (Invitrogen) and a StepOne real-time PCR system (ABI) for quantitative determination.
Further, 2D micromass culture was performed with the addition of 10 μM or 1 μg/mL Ac-YVAD-CHO. As a result, there was no influence in cartilaginous hyperplasia (FIGS. 6A, 6B, 6D, 6E, 6F, and 6H) or SOX9 expression (FIGS. 6C and 6G).

SOX9 [3] = assay: mRNA expression of SOX9 in chondroprogenitor cells with forskolin and SQ22536 added; assay type: cell-based, human; conditions: wild-type and mutant-type chondroprogenitor cells
Description: as §2
In order to examine whether or not the […] signal transduction pathway is involved in cartilaginous hyperplasia, analysis was conducted using forskolin, which is an adenylate cyclase activator, and SQ22536, which is an adenylate cyclase inhibitor. This test was conducted by introducing a human SOX9 promoter into chondroprogenitor cells, immediately treating the cells with 10 μM forskolin (CALBIOCHEM) or 10 μM SQ22536 (Sigma-Aldrich), and incubating cells for 24 hours so as to determine luciferase activity. As a result, the SOX9 promoter activity in mutant-type chondroprogenitor cells treated with forskolin increased to a level 2.3 times that of mutant-type chondroprogenitor cells (control) treated with a base (DMSO) (FIG. 7D). Meanwhile, the SOX9 promoter activity in mutant-type chondroprogenitor cells treated with SQ22536 decreased to a level half that in the control (FIG. 7D).

human SOX9 promoter = human SOX9 promoter luciferase reporter activity in chondroprogenitor cells; assay type: cell-based; conditions: mutant-type chondroprogenitor cells, 10 μM, 24 hours
Text: In order to examine SOX9 regulation, human SOX9 promoter activity in chondroprogenitor cells was confirmed. A reporter construct prepared by inserting a −927- to +84-bp human SOX9 promoter region (transcription start site: 0) into a pGL3-luciferase reporter plasmid (Promega) in accordance with Ushita M et al., Osteoarthritis and cartilage/OARS, Osteoarthritis Research Society. 2009; 17(8): 1065-75 was used for confirmation (FIG. 7A and Table 2). Chondroprogenitor cells obtained by the above method were seeded on a 6-well plate (50000 cells/well). A FuGENE 6 transfection reagent was used for transfection (2 μg DNA/well). Twenty four hours later, luciferase activity was determined using a Dual-Luciferase Reporter Assay Kit (Promega) and a Centro XS^3 LB 960 Microplate Luminometer (BERTHOLD) for calculation of promoter activity. […] Next, in order to identify mutation of a site responsible for NLRP3-dependent responsiveness, reporter constructs each having a mutation in an NFAT-binding sequence, an AP-1-binding sequence, an NF-κB-binding sequence, an Sp1-binding sequence, or an CREB/ATF-binding sequence were prepared as listed in Table 3. These mutated reporter constructs were transfected into chondroprogenitor cells in the above manner to confirm promoter activity. […]

[4] = system: mutant-type chondroprogenitor cells; assay: 3D pellet culture, size of cartilaginous pellets (Alcian Blue stained area), mutant-type; assay type: cell-based, human; conditions: added during 3D pellet culture
Description: Chondroprogenitor cells obtained by the above method were cultured in a cartilage induction medium containing 5 ng/mL FGF2 and 10 ng/ml TGFβ3 for 3 days. Then, 2.5×10^5 cells were centrifuged to form a pellet, followed by culture in a cartilage induction medium containing 0.5 ml of 40 ng/ml PDGF-BB and 1% FCS, as in the case of 2D micromass culture. Six days later, 10 ng/ml TGFβ3 was further added for culture. Ten days later, PDGF-BB was substituted with 50 ng/ml BMP4 (WAKO). 3D pellet culture was mained at 37° C. in 5% CO2 for 28 days.
In order to examine the chondrocytes induced via 2D micromass culture and those induced via 3D pellet culture, the cells obtained by 2D micromass culture were fixed with 4% paraformaldehyde (PFA) for 1 hour and stained with 1% Alcian Blue (pH 1.0) (Sigma-Aldrich), and the cells obtained by 3D pellet culture were fixed with 4% paraformaldehyde (PFA) for 1 hour and stained with 0.1% Alcian Blue (pH 1.0) (Sigma-Aldrich). Further, immunostaining was carried out using an anti-COL2 antibody (Thermo Scientific). Alcian blue is a reagent for detecting an extracellular matrix secreted by chondrocytes, and COL2 is a gene that is expressed in a chondrocyte-specific manner.
Further, the influence of adenylate cyclase was examined with the addition of forskolin and SQ22536 during 3D pellet culture. […]

## Ac-YVAD-CHO
[1]
  influence in cartilaginous hyperplasia: no influence
SOX9 [2]
  influence in SOX9 expression: no influence

## Nc1ncnc2c1ncn2C1CCCO1 (stereo not shown) [SQ22536, 9-(tetrahydro-2-furanyl)-adenine]
SOX9 [3]
  effect on mRNA expression of SOX9, relation to SOX9 promoter activity data: correlated
Human SOX9 promoter
  SOX9 promoter activity, decrease relative to control treated with a base (DMSO): half
[4]
  size, decrease relative to control treated with a base (DMSO): 2.1 times less

## C=C[C@@]1(C)CC(=O)[C@]2(O)[C@@]3(C)[C@@H](O)CCC(C)(C)[C@@H]3[C@H](O)[C@H](OC(C)=O)[C@@]2(C)O1 [forskolin]
Human SOX9 promoter
  SOX9 promoter activity, increase relative to control treated with a base (DMSO): 2.3 times
[4]
  size, increase relative to control treated with a base (DMSO): 2.0 times
